Assay: Inhibition of alphaIIb-beta3 integrin mediated platelet aggregation (PLAGGIN15)

IC50, > 10 µM:
COc1ccc([C@@H](CCC[C@@H](O)CCc2ccc3c(n2)NCCC3)CC(=O)O)cn1 [(3S,7R)-7-Hydroxy-3-(6-methoxy-pyridin-3-yl)-9-(5,6,7,8-tetrahydro-[1,8]naphthyridin-2-yl)-nonanoic acid], COc1ccc([C@@H](CCC[C@H](O)CCc2ccc3c(n2)NCCC3)CC(=O)O)cn1 [(3S,7S)-7-Hydroxy-3-(6-methoxy-pyridin-3-yl)-9-(5,6,7,8-tetrahydro-[1,8]naphthyridin-2-yl)-nonanoic acid], COc1ccc([C@@H](CCCC(=O)CCc2ccc3c(n2)NCCC3)CC(=O)O)cn1 [(S)-3-(6-Methoxy-pyridin-3-yl)-7-oxo-9-(5,6,7,8-tetrahydro-[1,8]naphthyridin-2-yl)-nonanoic acid]
